What was measured:
[1] = test system: methicillin resistant Staphylococcus epidermidis (MRSE); assay: standard microtiter broth serial dilution test, MRSE strains; assay type: cell-based; conditions: 10 strains of MRSE; approximately 10^5 colony forming units, 35° for 18 hours
Method: (§1) The antibacterial activity of the compounds of the invention may be readily determined using conventional test procedures. For example the antibacterial activity of the compounds of the invention was determined using a standard mictoriter broth serial dilution test. In this test the broth was incubated with approximately 10^5 colony forming units of the test organism and incubated at 35° for 18 hours in the presence of test compound.
(§2) In this list the compounds of the invention were tested using this procedure against 23 strains of MRSA and 10 strains of MRSE and the resultant minimum inhibitory concentrations (MIC90) in mg/litre determined.

[2] = test system: methicillin resistant Staphylococcus aureus (MRSA); assay: standard microtiter broth serial dilution test, MRSA strains; assay type: cell-based; conditions: 23 strains of MRSA; approximately 10^5 colony forming units, 35° for 18 hours
Method: as §1, §2

[3] = toxicity on administration to rats; assay type: in vivo; conditions: doses up to 1000 mg/kg
From the text: Compounds of the invention are in general non-toxic and therapeutically effective doses.

SMILES	MRSE MIC90 [1]	MRSA MIC90 [2]	untoward effects [3]
C[C@@H](O)[C@H]1C(=O)N2C(C(=O)[O-])=C3/C(=C/c4cc5ccccc5o4)CCC[C@@H]3[C@H]12.[Na+] [Example 11]	2 µg/mL	4 µg/mL	–
Cc1cc(/C=C2\CCC[C@H]3C2=C(C(=O)[O-])N2C(=O)[C@H]([C@@H](C)O)[C@@H]32)ccn1.[Na+] [Example 10, Sodium (8S,9R,10S,12R)-1-aza-10-(1-Hydroxyethyl)-11-oxo-4-[(E)-(2-methylpyridin-4-yl)methylene]-tricyclo-[7,2,0,0^3.8]-undec-2-ene-2-carboxylate]	4 µg/mL	8 µg/mL	–
C[C@@H](O)[C@H]1C(=O)N2C(C(=O)[O-])=C3/C(=C/c4cc5ccccc5s4)CCC[C@@H]3[C@H]12.[Na+] [Example 16, Sodium (8S,9R,10S,12R)-1-aza-10-(1-Hydroxyethyl)-11-oxo-4-[(E)-(benzothiophen-2-yl)methylene]-tricyclo-[7,2,0,0^3.8]-undec-2-ene-2-carboxylate]	1 µg/mL	2 µg/mL	–
C[C@@H](O)[C@H]1C(=O)N2C(C(=O)[O-])=C3/C(=C/c4cc(-c5cc[n+](CC(N)=O)cc5)cs4)CCC[C@@H]3[C@H]12 [Example 18, (8S,9R,10S,12R)-1-aza-10-(1-Hydroxyethyl)-11-oxo-4-[(E)-(4-(1′-(carbamoylmethyl)pyridinium-4-′-yl)thiophen-2-yl)methylene]-tricyclo-[7,2,0,0^3.8]-undec-2-ene-2-carboxylate]	2 µg/mL	4 µg/mL	–
C[C@@H](O)[C@H]1C(=O)N2C(C(=O)[O-])=C3/C(=C/c4ccnc(Cl)c4)CCC[C@@H]3[C@H]12.[Na+] [Example 12]	2 µg/mL	4 µg/mL	–
C[C@@H](O)[C@H]1C(=O)N2C(C(=O)[O-])=C3/C(=C/c4nc(-c5ccncc5)cs4)CCC[C@@H]3[C@H]12.[Na+] [Example 3, Sodium (8S,9R,10S,12R)-1-aza-10-(1-Hydroxyethyl)-11-oxo-4-[(E)-(4-(4′-pyridyl)thiazol-2-yl)methylene]-tricyclo-[7,2,0,0^3.8]-undec-2-ene-2-carboxylate]	2 µg/mL	4 µg/mL	–
C[C@@H](O)[C@H]1C(=O)N2C(C(=O)[O-])=C3/C(=C/c4ccc([N+](=O)[O-])cc4)CCC[C@@H]3[C@H]12.[Na+] [Example 6, Sodium (8S,9R,10S,12R)-1-aza-10-(1-Hydroxyethyl)-11-oxo-4-[(E)-(4-nitrophenyl)methylene]-tricyclo-[7,2,0,0^3.8]-undec-2-ene-2-carboxylate]	2 µg/mL	2 µg/mL	–
C[C@@H](O)[C@H]1C(=O)N2C(C(=O)[O-])=C3/C(=C/c4ccncc4)CCC[C@@H]3[C@H]12.[Na+] [Example 5, Sodium (8S,9R,10S,12R)-1-aza-10-(1-Hydroxyethyl)-11-oxo-4-[(E)-(pyrid-4-yl)methylene]-tricyclo-[7,2,0,0^3.8]-undec-2-ene-2-carboxylate]	2 µg/mL	4 µg/mL	no untoward effects
Cc1cc(/C=C2\CCC[C@H]3C2=C(C(=O)[O-])N2C(=O)[C@H]([C@@H](C)O)[C@@H]32)cc(C)n1.[Na+] [Example 9, Sodium (8S,9R,10S,12R)-1-aza-10-(1-Hydroxyethyl)-11-oxo-4-[(E)-(2,6-dimethylpyridin-4-yl)methylene]-tricyclo-[7,2,0,0^3.8]-undec-2-ene-2-carboxylate]	4 µg/mL	8 µg/mL	–
C[C@@H](O)[C@H]1C(=O)N2C(C(=O)[O-])=C3/C(=C/c4ccc(Cl)c([N+](=O)[O-])c4)CCC[C@@H]3[C@H]12.[Na+] [Example 15, Sodium (8S,9R,10S,12R)-1-aza-10-(1-Hydroxyethyl)-11-oxo-4-[(E)-(4-chloro-3-nitro-phenyl)methylene]-tricyclo-[7,2,0,0^3.8]-undec-2-ene-2-carboxylate]	2 µg/mL	4 µg/mL	–
C[C@@H](O)[C@H]1C(=O)N2C(C(=O)[O-])=C3/C(=C/c4cc5cnccc5o4)CCC[C@@H]3[C@H]12.[Na+] [Example 13]	4 µg/mL	4 µg/mL	–
C[C@@H](O)[C@H]1C(=O)N2C(C(=O)[O-])=C3/C(=C/c4nc(-c5ccccc5)cs4)CCC[C@@H]3[C@H]12.[Na+] [Example 7, Sodium (8S,9R,10S,12R)-1-aza-10-(1-Hydroxyethyl)-11-oxo-4-[(E)-(4-phenylthiazol-2-yl)methylene]-tricyclo-[7,2,0,0^3.8]-undec-2-ene-2-carboxylate]	2 µg/mL	4 µg/mL	–
C[C@@H](O)[C@H]1C(=O)N2C(C(=O)[O-])=C3/C(=C/c4cccc(-c5ccncc5)c4)CCC[C@@H]3[C@H]12.[Na+] [Example 8, Sodium (8S,9R,10S,12R)-1-aza-10-(1-Hydroxyethyl)-11-oxo-4-[(E)-(3-(4′-pyridyl)phenyl)methylene]-tricyclo-[7,2,0,0^3.8]-undec-2-ene-2-carboxylate]	2 µg/mL	2 µg/mL	–
C[C@@H](O)[C@H]1C(=O)N2C(C(=O)[O-])=C3/C(=C/c4ccccc4)CCC[C@@H]3[C@H]12.[Na+] [Example 1, Sodium (8S,9R,10S,12R)-1-aza-10-(1-Hydroxyethyl)-11-oxo-4-[(E)-phenylmethylene]-tricyclo-[7,2,0,0^3.8]-undec-2-ene-2-carboxylate]	4 µg/mL	8 µg/mL	–
C[C@@H](O)[C@H]1C(=O)N2C(C(=O)[O-])=C3/C(=C/c4csc5ccccc45)CCC[C@@H]3[C@H]12.[Na+] [Example 17, Sodium (8S,9R,10S,12R)-1-aza-10-(1-Hydroxyethyl)-11-oxo-4-[(E-)(benzothiophen-3-yl)methylene]-tricyclo-[7,2,0,0^3.8]-undec-2-ene-2-carboxylate]	2 µg/mL	4 µg/mL	–
C[C@@H](O)[C@H]1C(=O)N2C(C(=O)[O-])=C3/C(=C/c4ccnc(N)c4)CCC[C@@H]3[C@H]12.[Na+] [Example 14, Sodium (8S,9R,10S,12R)-1-aza-10-(1-Hydroxyethyl)-11-oxo-4-[(E)-(2-aminopyrid-4-yl)methylene]-tricyclo-[7,2,0,0^3.8]-undec-2-ene-2-carboxylate]	4 µg/mL	8 µg/mL	–

From patent US6531466B2, “Tricyclic carbapenem compounds” (GlaxoSmithKline SpA, priority 1996, dated 2003)
